Laboratory results: patent US20210392895A1, “NOVEL OXADIAZOLES” (PI INDUSTRIES LIMITED, priority 2018, published 2021)

Key:
Colletotrichum capsici = Colletotrichum capsici (anthracnose) in vitro test, radial growth on Potato Dextrose Agar; settings: Colletotrichum truncatum, 168 h, read-out: control
Experimental: Compounds were dissolved in 0.3% DMSO and then added to Potato Dextrose Agar medium just prior to dispensing it into petri dishes. 5 mL medium with compound in the desired concentration was dispensed into 60 mm sterile petri-plates. After solidification, each plate was seeded with a 5 mm size mycelial disc taken form the periphery of an actively growing virulent culture plate. Plates were incubated in growth chambers at 25° C. temperature and 60% relative humidity for seven days and radial growth was measured.

Alternaria solani = Alternaria solani (early blight of tomato/potato) in vitro test, radial growth on Potato Dextrose Agar; assay type: cell-based; settings: 168 h, compared to the untreated check, radial growth after seven days, read-out: control
Phakopsora pachyrhizi = Phakopsora pachyrhizi test in soybean (greenhouse, preventive activity, disease severity rating); assay type: in vivo; settings: preventive spray on soybean, compared to the untreated check
Summary of the method: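 Greenhouse-raised young soybean plants sprayed with compound at stated rates, then inoculated one day later with 2.1×10^6 P. pachyrhizi spores and held at 25° C, 90% RH. Disease severity (0-100%) rated visually 3, 7, 10 and 15 days after application; % control calculated versus untreated plants.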

Rhizoctonia solani = Rhizoctonia solani (rice sheath blight/potato black scurf) in vitro test, radial growth on Potato Dextrose Agar; assay type: cell-based; settings: 168 h, compared to the untreated check, radial growth after seven days, read-out: control
Fusarium culmorum = Fusarium culmorum (foot rot of cereals) in vitro test, radial growth on Potato Dextrose Agar; assay type: cell-based; settings: 168 h, 25° C., seven days, read-out: control compared to the untreated check (radial growth)
Pyricularia oryzae = experiment: microbe, parasite or virus in culture; assay type: cell-based; settings: 168 h, read-out: control
Botrytis cinerea = Botrytis cinerea (gray mold) in vitro test, radial growth on Potato Dextrose Agar; assay type: cell-based; settings: 168 h, compared to the untreated check, radial growth after seven days, read-out: control
Corynespora cassicola = Corynespora cassicola (leaf spot of tomato) in vitro test, radial growth on Potato Dextrose Agar; assay type: cell-based; settings: 168 h, compared to the untreated check, radial growth after seven days, read-out: control

O=C(c1cccnc1)N1CC[C@H](Oc2ccc(-c3noc(C(F)(F)F)n3)cc2)C1 [Compound 12, (S)-pyridin-3-yl(3-(4-(5-(trifluoromethyl)-1,2,4-oxadiazol-3-yl)phenoxy)pyrrolidin-1-yl)methanone]
> 70%: inhibition of growth at 300 ppm (Colletotrichum capsici) | inhibition of growth at 300 ppm (Alternaria solani) | pest or weed control at 500 ppm (Phakopsora pachyrhizi) | inhibition of growth at 300 ppm (Rhizoctonia solani) | inhibition of growth at 300 ppm (Fusarium culmorum) | inhibition of growth at 300 ppm (Pyricularia oryzae)

O=C(c1ccncc1)N1CC[C@H](Oc2ccc(-c3noc(C(F)(F)F)n3)cc2)C1 [Compound 13, (S)-pyridin-4-yl(3-(4-(5-(trifluoromethyl)-1,2,4-oxadiazol-3-yl)phenoxy)pyrrolidin-1-yl)methanone]
> 70%: inhibition of growth at 300 ppm (Colletotrichum capsici) | inhibition of growth at 300 ppm (Alternaria solani) | pest or weed control at 500 ppm (Phakopsora pachyrhizi) | inhibition of growth at 300 ppm (Rhizoctonia solani) | inhibition of growth at 300 ppm (Fusarium culmorum) | inhibition of growth at 300 ppm (Pyricularia oryzae) | inhibition of growth at 300 ppm (Botrytis cinerea)

O=C(Cc1ccccn1)N1CC[C@H](Oc2ccc(-c3noc(C(F)(F)F)n3)cc2)C1 [Compound 55, (S)-2-(pyridin-2-yl)-1-(3-(4-(5-(trifluoromethyl)-1,2,4-oxadiazol-3-yl)phenoxy)pyrrolidin-1-yl)ethan-1-one]
> 70%: inhibition of growth at 300 ppm (Corynespora cassicola) | inhibition of growth at 300 ppm (Colletotrichum capsici) | inhibition of growth at 300 ppm (Rhizoctonia solani) | inhibition of growth at 300 ppm (Fusarium culmorum) | inhibition of growth at 300 ppm (Pyricularia oryzae) | inhibition of growth at 300 ppm (Botrytis cinerea)

O=C(c1ccncc1)N1CC[C@H](Oc2ccc(-c3noc(C(F)(F)F)n3)c(F)c2)C1 [Compound 66, (S)-(3-(3-fluoro-4-(5-(trifluoromethyl)-1,2,4-oxadiazol-3-yl)phenoxy)pyrrolidin-1-yl)(pyridin-4-yl)methanone]
> 70%: inhibition of growth at 300 ppm (Corynespora cassicola) | inhibition of growth at 300 ppm (Colletotrichum capsici) | inhibition of growth at 300 ppm (Alternaria solani) | inhibition of growth at 300 ppm (Rhizoctonia solani) | inhibition of growth at 300 ppm (Fusarium culmorum) | inhibition of growth at 300 ppm (Pyricularia oryzae) | inhibition of growth at 300 ppm (Botrytis cinerea)

CC(=O)N1CC[C@H](Oc2ccc(-c3noc(C(F)(F)F)n3)cc2F)C1 [Compound 69, (S)-1-(3-(2-fluoro-4-(5-(trifluoromethyl)-1,2,4-oxadiazol-3-yl)phenoxy)pyrrolidin-1-yl)ethan-1-one]
> 70%: inhibition of growth at 300 ppm (Corynespora cassicola) | inhibition of growth at 300 ppm (Colletotrichum capsici) | inhibition of growth at 300 ppm (Alternaria solani) | inhibition of growth at 300 ppm (Rhizoctonia solani) | inhibition of growth at 300 ppm (Fusarium culmorum) | inhibition of growth at 300 ppm (Pyricularia oryzae) | inhibition of growth at 300 ppm (Botrytis cinerea)

CC(=O)N1CC(N(C)c2ccc(-c3noc(C(F)(F)F)n3)cc2)C1 [Compound 89, 1-(3-(methyl(4-(5-(trifluoromethyl)-1,2,4-oxadiazol-3-yl)phenyl)amino)azetidin-1-yl)ethan-1-one]
> 70%: inhibition of growth at 300 ppm (Corynespora cassicola) | inhibition of growth at 300 ppm (Colletotrichum capsici) | inhibition of growth at 300 ppm (Alternaria solani) | inhibition of growth at 300 ppm (Rhizoctonia solani) | inhibition of growth at 300 ppm (Fusarium culmorum) | inhibition of growth at 300 ppm (Pyricularia oryzae) | inhibition of growth at 300 ppm (Botrytis cinerea)

O=C(c1cocn1)N1CC[C@H](Oc2ccc(-c3noc(C(F)(F)F)n3)cn2)C1 [Compound 199, (S)-oxazol-4-yl(3-((5-(5-(trifluoromethyl)-1,2,4-oxadiazol-3-yl)pyridin-2-yl)oxy)pyrrolidin-1-yl)methanone]
> 70%: inhibition of growth at 300 ppm (Colletotrichum capsici) | inhibition of growth at 300 ppm (Alternaria solani) | inhibition of growth at 300 ppm (Fusarium culmorum) | inhibition of growth at 300 ppm (Pyricularia oryzae)
